Legend:
[1] = tested on: GABAA; assay: PDSP binding assay; conditions: 10 μM, quadruplicate, cloned target
[2] = In vivo pharmacokinetic study, plasma and brain exposure; conditions: mouse, 10 mg/kg i.p.
[3] = molecular target: KOR (Homo sapiens, UniProt P41145); assay: PDSP binding assay; conditions: 10 μM, quadruplicate, cloned target
[4] = molecular target: D5 (Homo sapiens, UniProt P21918); assay: PDSP binding assay; conditions: 10 μM, quadruplicate, cloned target
[5] = molecular target: T1, 5-HT6 (Homo sapiens, UniProt P50406); assay: PDSP binding assay; conditions: 10 μM, quadruplicate, cloned target
T1 construct: NIMH Psychoactive Drug Screening Program (PDSP)

[6] = molecular target: H4 (Homo sapiens, UniProt Q9H3N8); assay: PDSP binding assay; conditions: 10 μM, quadruplicate, cloned target
[7] = tested on: BZP Rat Brain Site; assay: PDSP binding assay; conditions: 10 μM, quadruplicate
[8] = Brain homogenate binding (equilibrium dialysis); type: in vitro ADME; conditions: rat brain homogenate
Text: Both compounds were then profiled for their plasma protein binding (PPB) and brain homogenate binding (BHB) to predict the unbound drug fraction in the plasma and brain respectively.

[9] = molecular target: D4 (Homo sapiens, UniProt P21917); assay: PDSP binding assay; conditions: 10 μM, quadruplicate, cloned target
[10] = molecular target: Alpha1D (Homo sapiens, UniProt P25100); assay: PDSP binding assay; conditions: 10 μM, quadruplicate, cloned target
[11] = tested on: NMDAR EPSCs in VTA dopamine neurons; assay: Electrophysiology: CRF potentiation of NMDAR EPSCs in VTA slices; type: cell-based, mouse; conditions: 30 μM compound, CRF 1 μM, VTA-DA neurons, acute brain slices
Text: Male and female mice (n=44; 6-10 weeks) were anesthetized with Euthasol (Butler-Schein). Brains were rapidly removed and placed in ice-cold NMDG-based artificial Cerebrospinal Fluid (aCSF) cutting solution containing (in mM): 92 NMDG, 20 HEPES, 25 glucose, 30 NaHCO3, 2.5 KCl, 1.2 NaPO4 saturated with 95% O2/5% CO2 with an osmolarity of 305-308 mOsm (Advanced Cell Diagnostics). The brain was cut in ice-cold NMDG solution to obtain horizontal VTA slices, 230 μm thick, using a Leica vibratome (Leica VT1200) and slices were incubated in warm NMDG solution (34° C.) for <5 minutes before being placed in a modified aCSF holding solution (in mM): 92 NaCl, 20 HEPES, 25 glucose, 30 NaHCO3, 2.5 KCl, 1.2 NaPO4 (305-308 mOsm). Slices were incubated at room temperature for at least 1 hour before recording.
Whole-cell patch clamp of the lateral VTA was performed under the guidance of IR-DIC optics on an Olympus BX5iWI microscope. Cells were patched with 1.8-3 MO resistance glass microelectrodes containing the following internal solution (in mM): 117 cesium methanesulfonate, 20 HEPES, 0.4 EGTA, 2.8 NaCl, 5 TEA-CI, 4 Mg-ATP, 0.4 Na-GTP, and 5 QX-314 (280-285 mOsm). Dopamine cells were identified by the following criteria: 1) large multipolar soma, 30-40 μm in diameter, 2) tonic firing of <4 Hz when cell attached, 3) large […] with negative voltage step (identified immediately following break in). […] Series resistance was monitored online. […]
For electrophysiology measures, excitatory post-synaptic currents (EPSCs) were normalized to 7 minute of averaged baseline responses, prior to drug application. […] Results are reported as M±SEM a in bar graphs comparing drug to vehicle and analyzed by a one-way ANOVA and post-hoc comparisons to vehicle were performed using a Bonferroni multiple comparisons correction measures (**p<0.01). […]
NMDAR excitatory postsynaptic currents (EPSCs) were recorded from VTA dopamine (DA) neurons in acute brain slices from male and female mice. […]

[12] = molecular target: Alpha1B (Homo sapiens, UniProt P35368); assay: PDSP binding assay; conditions: 10 μM, quadruplicate, cloned target
[13] = molecular target: T2, 5-HT2A (Homo sapiens, UniProt P28223); assay: PDSP binding assay; conditions: 10 μM, quadruplicate, cloned target
T2 construct: NIMH Psychoactive Drug Screening Program (PDSP)

[14] = molecular target: Beta3 (Homo sapiens, UniProt P13945); assay: PDSP binding assay; conditions: 10 μM, quadruplicate, cloned target
[15] = molecular target: T3, 5-HT7 (Homo sapiens, UniProt P34969); assay: PDSP binding assay; conditions: 10 μM, quadruplicate, cloned target
T3 construct: NIMH Psychoactive Drug Screening Program (PDSP)

[16] = molecular target: M2 (Homo sapiens, UniProt P08172); assay: PDSP binding assay; conditions: 10 μM, quadruplicate, cloned target
[17] = molecular target: Beta1 (Homo sapiens, UniProt P08588); assay: PDSP binding assay; conditions: 10 μM, quadruplicate, cloned target
[18] = molecular target: M1 (Homo sapiens, UniProt P11229); assay: PDSP binding assay; conditions: 10 μM, quadruplicate, cloned target
[19] = molecular target: MOR (Homo sapiens, UniProt P35372); assay: PDSP binding assay; conditions: 10 μM, quadruplicate, cloned target
[20] = molecular target: M3 (Homo sapiens, UniProt P20309); assay: PDSP binding assay; conditions: 10 μM, quadruplicate, cloned target
[21] = molecular target: T4, 5-HT2B (Homo sapiens, UniProt P41595); assay: PDSP binding assay; conditions: 10 μM, quadruplicate, cloned target
T4 construct: NIMH Psychoactive Drug Screening Program (PDSP)

[22] = molecular target: M4 (Homo sapiens, UniProt P08173); assay: PDSP binding assay; conditions: 10 μM, quadruplicate, cloned target
Sequence of M4 (P08173 whole entry): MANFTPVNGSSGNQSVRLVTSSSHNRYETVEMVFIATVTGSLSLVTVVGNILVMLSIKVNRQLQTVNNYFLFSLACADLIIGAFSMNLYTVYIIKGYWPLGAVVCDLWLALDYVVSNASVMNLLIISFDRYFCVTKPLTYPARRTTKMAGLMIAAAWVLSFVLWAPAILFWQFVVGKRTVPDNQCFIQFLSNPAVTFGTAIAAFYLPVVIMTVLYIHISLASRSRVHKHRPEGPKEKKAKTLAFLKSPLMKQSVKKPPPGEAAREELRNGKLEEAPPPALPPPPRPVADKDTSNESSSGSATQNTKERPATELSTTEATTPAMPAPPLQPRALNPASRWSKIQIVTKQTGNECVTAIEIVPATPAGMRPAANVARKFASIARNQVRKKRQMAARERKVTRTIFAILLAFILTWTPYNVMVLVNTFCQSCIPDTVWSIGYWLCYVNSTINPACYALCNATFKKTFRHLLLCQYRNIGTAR

T1 sequence (P50406 whole entry, species assumed): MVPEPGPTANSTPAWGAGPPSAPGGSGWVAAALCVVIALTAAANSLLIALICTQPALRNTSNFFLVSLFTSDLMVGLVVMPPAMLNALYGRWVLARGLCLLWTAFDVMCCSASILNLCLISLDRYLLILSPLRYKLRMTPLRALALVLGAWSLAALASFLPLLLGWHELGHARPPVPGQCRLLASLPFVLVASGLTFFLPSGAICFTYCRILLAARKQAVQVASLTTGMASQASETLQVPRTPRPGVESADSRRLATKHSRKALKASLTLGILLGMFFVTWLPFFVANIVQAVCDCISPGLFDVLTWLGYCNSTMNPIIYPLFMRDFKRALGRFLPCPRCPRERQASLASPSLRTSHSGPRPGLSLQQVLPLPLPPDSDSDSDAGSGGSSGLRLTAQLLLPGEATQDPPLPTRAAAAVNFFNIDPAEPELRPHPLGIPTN
Sequence of Alpha1B (P35368 whole entry): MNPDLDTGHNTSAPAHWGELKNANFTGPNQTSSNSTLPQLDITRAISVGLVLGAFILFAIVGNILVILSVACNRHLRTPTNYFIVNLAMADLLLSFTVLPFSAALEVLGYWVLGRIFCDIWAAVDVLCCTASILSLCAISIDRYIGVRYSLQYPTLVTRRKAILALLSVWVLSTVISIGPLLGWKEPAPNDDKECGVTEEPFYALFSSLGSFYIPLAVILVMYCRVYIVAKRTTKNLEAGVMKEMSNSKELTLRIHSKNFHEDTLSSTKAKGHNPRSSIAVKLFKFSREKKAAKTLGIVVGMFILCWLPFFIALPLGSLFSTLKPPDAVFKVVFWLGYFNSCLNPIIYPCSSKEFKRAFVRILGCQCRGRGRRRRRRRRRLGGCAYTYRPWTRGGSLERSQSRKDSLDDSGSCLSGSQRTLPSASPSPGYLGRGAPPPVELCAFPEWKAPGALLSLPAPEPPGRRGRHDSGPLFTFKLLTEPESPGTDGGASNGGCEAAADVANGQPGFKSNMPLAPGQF
T3 sequence (P34969 whole entry, species assumed): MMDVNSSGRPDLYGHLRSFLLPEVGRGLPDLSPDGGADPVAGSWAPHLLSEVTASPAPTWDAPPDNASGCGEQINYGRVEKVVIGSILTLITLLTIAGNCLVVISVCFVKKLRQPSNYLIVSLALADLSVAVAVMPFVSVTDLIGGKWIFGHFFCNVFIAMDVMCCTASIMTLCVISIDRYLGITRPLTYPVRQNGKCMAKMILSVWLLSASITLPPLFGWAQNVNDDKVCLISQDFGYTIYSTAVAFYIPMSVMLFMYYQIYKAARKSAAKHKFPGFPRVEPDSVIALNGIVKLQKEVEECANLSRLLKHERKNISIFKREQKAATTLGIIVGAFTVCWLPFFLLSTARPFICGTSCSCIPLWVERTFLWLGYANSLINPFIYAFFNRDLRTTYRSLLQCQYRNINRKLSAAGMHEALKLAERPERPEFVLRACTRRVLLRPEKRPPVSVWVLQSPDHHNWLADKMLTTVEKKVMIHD
T2 sequence (P28223 whole entry, species assumed): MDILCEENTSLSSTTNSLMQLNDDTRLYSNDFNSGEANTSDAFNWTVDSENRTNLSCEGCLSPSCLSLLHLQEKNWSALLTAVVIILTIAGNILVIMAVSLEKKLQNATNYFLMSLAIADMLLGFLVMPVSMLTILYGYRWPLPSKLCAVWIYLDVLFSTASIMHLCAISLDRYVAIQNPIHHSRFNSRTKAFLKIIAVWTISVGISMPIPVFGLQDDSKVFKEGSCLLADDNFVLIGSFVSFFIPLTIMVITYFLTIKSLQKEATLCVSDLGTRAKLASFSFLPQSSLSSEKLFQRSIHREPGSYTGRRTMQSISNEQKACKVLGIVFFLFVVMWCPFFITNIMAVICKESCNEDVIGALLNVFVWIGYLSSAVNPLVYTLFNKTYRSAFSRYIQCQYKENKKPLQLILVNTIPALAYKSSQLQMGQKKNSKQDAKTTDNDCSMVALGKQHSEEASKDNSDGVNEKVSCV
Sequence of M1 (P11229 whole entry): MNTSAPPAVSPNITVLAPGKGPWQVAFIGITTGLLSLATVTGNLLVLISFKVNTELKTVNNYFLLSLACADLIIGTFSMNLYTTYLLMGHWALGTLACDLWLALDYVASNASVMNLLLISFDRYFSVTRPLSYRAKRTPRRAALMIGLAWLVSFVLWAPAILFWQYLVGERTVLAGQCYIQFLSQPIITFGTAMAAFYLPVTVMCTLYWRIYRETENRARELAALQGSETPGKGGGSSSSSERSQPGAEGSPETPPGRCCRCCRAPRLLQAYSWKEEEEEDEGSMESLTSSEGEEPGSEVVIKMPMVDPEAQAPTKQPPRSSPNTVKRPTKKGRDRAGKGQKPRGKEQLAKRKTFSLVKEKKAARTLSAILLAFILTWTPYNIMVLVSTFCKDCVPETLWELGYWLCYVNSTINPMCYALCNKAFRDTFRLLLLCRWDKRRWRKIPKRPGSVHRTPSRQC
Sequence of H4 (Q9H3N8 whole entry): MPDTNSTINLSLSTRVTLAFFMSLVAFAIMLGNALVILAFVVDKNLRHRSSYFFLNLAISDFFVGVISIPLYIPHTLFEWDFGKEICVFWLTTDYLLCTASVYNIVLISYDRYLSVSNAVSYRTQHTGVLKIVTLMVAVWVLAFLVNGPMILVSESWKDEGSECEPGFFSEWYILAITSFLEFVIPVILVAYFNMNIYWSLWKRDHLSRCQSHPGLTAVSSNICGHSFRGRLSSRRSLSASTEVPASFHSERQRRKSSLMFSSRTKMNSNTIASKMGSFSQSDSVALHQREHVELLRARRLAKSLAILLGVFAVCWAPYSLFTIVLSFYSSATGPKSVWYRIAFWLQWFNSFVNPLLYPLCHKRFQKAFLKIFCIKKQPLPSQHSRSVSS
Sequence of KOR (P41145 whole entry): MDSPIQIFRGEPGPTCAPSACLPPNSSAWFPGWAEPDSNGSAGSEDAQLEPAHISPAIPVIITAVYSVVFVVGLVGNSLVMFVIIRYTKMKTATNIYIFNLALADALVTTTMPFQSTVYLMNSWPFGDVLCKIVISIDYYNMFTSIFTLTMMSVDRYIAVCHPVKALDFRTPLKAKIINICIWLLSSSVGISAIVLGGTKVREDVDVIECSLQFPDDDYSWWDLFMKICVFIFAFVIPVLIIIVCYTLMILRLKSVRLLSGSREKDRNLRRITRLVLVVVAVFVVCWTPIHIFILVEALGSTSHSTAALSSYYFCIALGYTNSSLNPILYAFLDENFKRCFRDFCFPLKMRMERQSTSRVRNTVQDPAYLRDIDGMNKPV
Sequence of M2 (P08172 whole entry): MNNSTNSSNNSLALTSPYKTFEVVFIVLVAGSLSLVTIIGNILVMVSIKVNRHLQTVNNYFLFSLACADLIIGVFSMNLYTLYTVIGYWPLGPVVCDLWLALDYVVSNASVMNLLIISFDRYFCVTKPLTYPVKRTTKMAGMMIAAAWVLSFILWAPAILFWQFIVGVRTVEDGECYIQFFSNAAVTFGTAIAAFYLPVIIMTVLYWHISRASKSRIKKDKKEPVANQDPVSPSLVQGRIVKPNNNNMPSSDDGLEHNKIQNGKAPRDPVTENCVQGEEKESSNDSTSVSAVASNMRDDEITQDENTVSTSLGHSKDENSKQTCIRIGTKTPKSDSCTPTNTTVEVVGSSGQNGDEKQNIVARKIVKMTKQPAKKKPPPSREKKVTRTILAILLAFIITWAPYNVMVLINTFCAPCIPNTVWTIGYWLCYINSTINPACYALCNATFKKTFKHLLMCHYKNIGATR
Sequence of D4 (P21917 whole entry): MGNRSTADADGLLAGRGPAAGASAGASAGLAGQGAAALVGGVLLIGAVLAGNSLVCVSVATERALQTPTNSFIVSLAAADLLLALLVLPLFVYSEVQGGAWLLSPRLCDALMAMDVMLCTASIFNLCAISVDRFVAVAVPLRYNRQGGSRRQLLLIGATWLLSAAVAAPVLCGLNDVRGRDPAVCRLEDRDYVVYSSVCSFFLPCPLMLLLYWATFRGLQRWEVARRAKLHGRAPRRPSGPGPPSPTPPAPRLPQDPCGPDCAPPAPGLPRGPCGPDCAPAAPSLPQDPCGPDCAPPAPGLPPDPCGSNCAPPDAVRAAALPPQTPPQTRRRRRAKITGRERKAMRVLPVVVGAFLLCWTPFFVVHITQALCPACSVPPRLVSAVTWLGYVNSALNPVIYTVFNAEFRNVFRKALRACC
Sequence of MOR (P35372 whole entry): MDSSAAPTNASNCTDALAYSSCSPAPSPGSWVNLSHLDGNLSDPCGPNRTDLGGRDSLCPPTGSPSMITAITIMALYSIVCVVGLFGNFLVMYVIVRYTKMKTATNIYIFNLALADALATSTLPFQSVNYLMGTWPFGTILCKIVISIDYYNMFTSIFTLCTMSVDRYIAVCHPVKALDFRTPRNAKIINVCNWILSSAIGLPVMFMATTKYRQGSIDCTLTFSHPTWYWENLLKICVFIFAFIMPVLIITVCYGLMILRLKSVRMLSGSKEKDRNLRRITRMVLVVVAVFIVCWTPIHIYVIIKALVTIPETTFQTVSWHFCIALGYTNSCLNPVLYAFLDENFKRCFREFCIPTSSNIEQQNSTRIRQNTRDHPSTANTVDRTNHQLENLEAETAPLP

| SMILES | Activity at GABAA (binding assay) [1] [%] | Brain exposure ([2]; 4 hour post-dose) [nM] | Brain exposure relative to IC50 ([2]; 4 hour post-dose) [×IC50] | Brain exposure ([2]; 24 hour post-dose) [nM] | Brain exposure relative to IC50 ([2]; 24 hour post-dose) [×IC50] | Plasma Cmax exposure relative to in vitro IC50 [2] [×] | Activity at KOR (binding assay) [3] [%] | Activity at D5 (binding assay) [4] [%] | Activity at 5-HT6 (binding assay) [5] [%] | Activity at H4 (binding assay) [6] [%] | Activity at BZP Rat Brain Site (binding assay) [7] [%] | Brain homogenate binding, free [8] [% free] | Activity at D4 (binding assay) [9] [%] | Activity at Alpha1D (binding assay) [10] [%] | Block of CRF potentiation of NMDAR EPSCs [11] | Activity at Alpha1B (binding assay) [12] [%] | Activity at 5-HT2A (binding assay) [13] [%] | Activity at Beta3 (binding assay) [14] [%] | Activity at 5-HT7 (binding assay) [15] [%] | Activity at M2 (binding assay) [16] [%] | also measured |
| --- | --- | --- | --- | --- | --- | --- | --- | --- | --- | --- | --- | --- | --- | --- | --- | --- | --- | --- | --- | --- | --- |
| Brc1ccccc1-c1nnc(CSc2nnnn2-c2ccccc2)o1 [MLS-0046818] | 15 | 56 | 0.10 | 40 | 0.07 | 4.8 | 85 | 12 | 35 | 8 | 35 | 2.3 | −42 | −10 | sufficient to block the CRF effect | 19 | 5 | 27 | −31 | 10 | Brain exposure relative to IC50 ([2]; 6 hour post-dose): 0.14 ×IC50; Activity at Beta1 (binding assay) [17]: 7%; Activity at M1 (binding assay) [18]: −15%; Activity at MOR (binding assay) [19]: 12%; Activity at M3 (binding assay) [20]: 13%; Activity at 5-HT2B (binding assay) [21]: 67%; Activity at M4 (binding assay) [22]: −12% |
| CC(C)Cn1c(SCC(=O)N2CCc3ccccc3C2)nc2cc(Cl)ccc2c1=O [MLS-0219419] | 9 | 245 | 0.52 | 78 | 0.17 | 1.7 | −10 | −15 | 2 | −15 | 25 | 0.0 | −60 | −19 | sufficient to block the CRF effect | −1 | −1 | 29 | 6 | 23 | Activity at Beta1 (binding assay) [17]: 1%; Activity at M1 (binding assay) [18]: −15%; Activity at MOR (binding assay) [19]: −4%; Activity at M3 (binding assay) [20]: 19%; Activity at 5-HT2B (binding assay) [21]: 2%; Activity at M4 (binding assay) [22]: −6% |

Reference: US12465594B2 (Brown University, priority 2018, dated 2025)
